Source: PMC11761228, “Cinnamic Acid Compounds (p-Coumaric, Ferulic, and p-Methoxycinnamic Acid) as Effective Antibacterial Agents Against Colistin-Resistant Acinetobacter baumannii” (Antibiotics, 2025)
Values after ≈ are worked out from the molar mass of the structure shown. Values joined by “and” are separate entries in the source; they are usually repeats but may differ in a detail not shown here. Equal values may be shown once. “Also recorded” adds a separate entry of the source. Read-outs that look alike come from different tables or passages of the source.

Assays:
[1] = system: biofilm formation of COLR-Ab isolates; experiment: Antibiofilm activity, microtiter plate-based crystal violet technique; assay type: cell-based, Acinetobacter baumannii; details: for Reduction of biofilm formation: dose range 512–32 μg/mL
Protocol: Following the incubation period, the microtiter plates were gently washed three times with PBS. Subsequently, 200 µL of methanol (99%) was added to each well and left for 15 min. The methanol was then removed from the wells and the plate was left to dry for approximately 30 min, thus completing the fixation process. Then, 200 µL of 0.1% CV solution was added to each well and incubated for 20 min at room temperature. The plates were washed three times with PBS in order to remove the excess stain, and then 150 μL of 95% ethanol was added to the wells and incubated for 20 min. The optical density of the CV-stained biofilm was measured at a wavelength of 575 nm using a Thermo Labsystem Multiscan Spectrum microtiter plate reader (Thermolabsystem, Chantilly, VA, USA). Each experiment was conducted in triplicate.
In order to evaluate the antibiofilm activity of COL, p-CA, FA, and p-MCA, a 96-well microtiter plate-based CV test was carried out, with minor modifications to the methods previously described by Kırmusaoglu (2019) and Haney et al. (2021). Briefly, bacteria were inoculated into MHB medium containing 0.2% glucose and incubated at 37 °C for 16–20 h. The bacterial suspension, adjusted to 0.5 McFarland using the same medium, was prepared to a final concentration of 5 × 10^5 CFU/mL and inoculated into 96-well flat-bottom microtitre plates. […] Wells containing only medium were used as negative controls (MHB), and wells containing only medium and bacteria were used as growth controls. The plates were then incubated overnight at 35 ± 2 °C in a normal atmosphere. Following incubation, CV staining procedures were carried out in a similar manner to Section 4.4.
The antibiofilm index was calculated using the following formula:% Biofilm Mass = (100 × Sample OD575/Growth Control OD575)

[2] = system: HUVEC cells; experiment: CCK-8 cell viability assay; assay type: cell-based, human; details: 0.78125–200 μg/mL, 24 h
Protocol: (§1) 293T [HEK-293] (ATCC® CRL-1573), HUVEC (ATCC CRL-1730 ™, human umbilical vein endothelial cells) and Vero (ATCC® CCL-81™, African green monkey kidney epithelial cells) cells were used in this study. Cells were cultured in RPMI-1640 medium supplemented with 10% fetal bovine serum, 0.1 mM non-essential amino acids, […], 2 mM L-glutamine, and 10 μg/mL gentamicin in a humidified atmosphere of 5% CO2, 95% air at 37 °C. After growing to approximately 80% confluence, the cells were detached with 0.25% (w/v) trypsin-EDTA and then subcultured. The cells were stored in a deep freezer at −80 °C in a solution prepared with 95% medium and 5% DMSO.
Cell viability was assessed according to the manufacturer’s protocol using a Cell Counting Kit-8 (CCK-8) (KTA1020, Abbkine, Atlanta, GA, USA). The assay is based on the reduction of 2-(2-methoxy-4-nitrophenyl)-3-(4-nitrophenyl)-5-(2,4-disulfophenyl)-2H-tetrazolium monosodium salt (WST-8) by cellular mitochondrial dehydrogenase. Cells were seeded in 96-well plates at a final concentration of 5 × 10^3 cells/well in 100 μL complete culture medium and were allowed to attach for 24 h. […] Immediately after the treatment, cell viability in a single column was determined and recorded as time zero (T0). The plain medium with 1% FBS was used as a negative control, whereas ethanol was used as solvent control. Each treatment was performed in four well replicates. At the end of the incubation, the medium was gently aspirated to terminate the experiment, a total volume of 10 μL (5 mg/mL) of CCK-8 solution was added to each well and further incubated under the same conditions for 4 h. The absorbances at 450 nm were measured in a microplate reader (Thermo Labsystem, Waltham, MA, USA), using wells without cells as background. The sample readings were calculated by subtracting the average of background absorbances. […] Cell viability was calculated using the following formula: Cell viability (%) = (ODtreatment − ODblank)/(ODcontrol − ODblank) × 100% [78].

[3] = system: Vero cells; experiment: CCK-8 cell viability assay; assay type: cell-based, African green monkey; details: 24 h; for Cytotoxicity (doses with cytotoxic effects): 0.78125–200 μg/mL
Protocol: as §1
Cell viability was assessed according to the manufacturer’s protocol using a Cell Counting Kit-8 (CCK-8) (KTA1020, Abbkine, Atlanta, GA, USA). The assay is based on the reduction of 2-(2-methoxy-4-nitrophenyl)-3-(4-nitrophenyl)-5-(2,4-disulfophenyl)-2H-tetrazolium monosodium salt (WST-8) by cellular mitochondrial dehydrogenase. Cells were seeded in 96-well plates at a final concentration of 5 × 10^3 cells/well in 100 μL complete culture medium and were allowed to attach for 24 h. […] Immediately after the treatment, cell viability in a single column was determined and recorded as time zero (T0). The plain medium with 1% FBS was used as a negative control, whereas ethanol was used as solvent control. Each treatment was performed in four well replicates. At the end of the incubation, the medium was gently aspirated to terminate the experiment, a total volume of 10 μL (5 mg/mL) of CCK-8 solution was added to each well and further incubated under the same conditions for 4 h. The absorbances at 450 nm were measured in a microplate reader (Thermo Labsystem, Waltham, MA, USA), using wells without cells as background. The sample readings were calculated by subtracting the average of background absorbances. The half-maximal inhibitory concentration (IC50) of each extract was derived by a nonlinear regression model (curve-fit) based on a sigmoidal dose response curve (variable slope) and was computed using Graph-Pad Prism, version 4.00 (Graph-Pad Software, San Diego, CA, USA). Cell viability was calculated using the following formula: Cell viability (%) = (ODtreatment − ODblank)/(ODcontrol − ODblank) × 100% [78].

[4] = system: COLR-Ab isolates; experiment: Broth microdilution MIC determination (CLSI); assay type: cell-based, Acinetobacter baumannii
Protocol: The broth microdilution method, as recommended by the CLSI, was used to determine the MIC values of COL, p-CA, FA, and p-MCA [46]. The serial two-fold dilutions of antimicrobial agents were prepared using 96-well microplates with cation-adjusted Mueller-Hinton Broth (MHB) (CAMHB, Merck KGaA, Darmstadt, Germany). Firstly, an initial concentration of 8192 µg/mL was chosen to determine the MIC values of all compounds against COLR-Ab isolates. […] The bacterial suspension was adjusted to the 0.5 McFarland standard and added to each well (final bacterial concentration: 5 × 10^5 colony forming units [CFU]/mL). Additionally, the microdilution plates included controls for bacterial growth (CAMHB + bacteria) and medium sterility (CAMHB). Microdilution plates were incubated at 35 ± 2 °C for 18–24 h. The MIC values were calculated by comparing the growth densities in the antibiotic-containing wells to those in the control wells used in each test set. Each experiment was conducted in triplicate.

[5] = system: COLR-Ab4 isolate; experiment: Scanning electron microscopy of cell morphology; assay type: cell-based, Acinetobacter baumannii; details: COLR-Ab4, MIC concentrations, 3 h
Protocol: To examine the potential impact of the antimicrobial agents on the cell morphology of the COLR-Ab4 isolate, SEM studies were carried out according to the method Bendali et al. (2008), with minor modifications. […] Bacteria incubated without treatment with agents were used as controls. After incubation, the suspension was centrifuged for 10 min at 4000× g. The bacteria were washed twice with 0.1 M phosphate-buffered solution (PBS, pH 7.0). The pellet was fixed in 2.5% glutaraldehyde solution and kept for at 4 °C for 2 h. After washing the bacteria again twice with PBS, the sample was fixed in 1% osmium tetroxide solution for 1 h. Then, the samples were dehydrated through suspension in increasing concentrations of ethanol (30, 50, 70, 80, 90, and 100%) for 10 min each. The ethanol was then replaced by 100% acetone. Finally, the samples were fixed on an SEM support, coated with gold/palladium using sputtering in a vacuum, and examined using SEM (Zeiss LEO 1430, Cambridge, UK).

Question: `COc1cc(/C=C/C(=O)O)ccc1O` [FA, ferulic acid] was tested. Which “Inhibition of biofilm formation” value ([1]; dose range 2048–128 μg/mL, COLR-Ab1, 3, 4, 5) did it give?
Answer: 28.1–77%

Question: And the “Cytotoxicity (doses with cytotoxic effects)” value (“Cytotoxicity” below) [2]?
Answer: did not induce cytotoxic effects; also recorded: did not exhibit any cytotoxic effect

Question: And the “Cytotoxicity” value [3]?
Answer: no cytotoxic effects; also recorded: did not exhibit any cytotoxic effect

Question: What about the MIC ([4]; COLR-Ab1) of the same compound?
Answer: 1024 mg/L (≈ 5270 µM)

Question: And the MIC ([4]; COLR-Ab2)?
Answer: 1024 mg/L (≈ 5270 µM)

Question: What about the MIC ([4]; COLR-Ab3) of the same compound?
Answer: 1024 mg/L (≈ 5270 µM)

Question: And the MIC ([4]; COLR-Ab4)?
Answer: 512 mg/L (≈ 2640 µM)

Question: And the MIC ([4]; COLR-Ab5)?
Answer: 1024 mg/L (≈ 5270 µM)

Question: And the MIC ([4]; all isolates except COLR-Ab4)?
Answer: 1024 mg/L (≈ 5270 µM)

Question: What about the “Cell morphology by SEM” value [5] of the same compound?
Answer: certain morphological changes in bacterial cells

Question: How did the “Increase in biofilm formation” value ([1]; COLR-Ab3, doses of 16–8 μg/mL) turn out when `O=C(O)/C=C/c1ccc(O)cc1` [p-CA, p-coumaric acid] was run?
Answer: 20%

Question: And the “Reduction of biofilm formation” value ([1]; COLR-Ab1, 3, 4, 5)?
Answer: 37.3–77.5%

Question: What about the “Cytotoxicity” value [2] of the same compound?
Answer: cytotoxicity in HUVEC cells at concentrations of 200 μg/mL (p < 0.01), 100 μg/mL (p < 0.05), and 50 μg/mL (p < 0.05); also recorded: cytotoxic at 200 (p < 0.01), 100 (p < 0.05), and 50 (p < 0.05) μg/mL

Question: What about the “Cytotoxicity” value [3] of the same compound?
Answer: no cytotoxic effects; also recorded: did not exhibit cytotoxic effects

Question: And the IC50 value ([3]; tested range 0.78–200 μg/mL)?
Answer: indeterminate

Question: What about the MIC ([4]; Acinetobacter baumannii, COLR-Ab1, read-out: MIC) of the same compound?
Answer: 256 mg/L (≈ 1560 µM)

Question: And the MIC ([4]; Acinetobacter baumannii, COLR-Ab2, read-out: MIC)?
Answer: 256 mg/L (≈ 1560 µM)

Question: And the MIC ([4]; Acinetobacter baumannii, COLR-Ab3, read-out: MIC)?
Answer: 256 mg/L (≈ 1560 µM)

Question: What about the MIC ([4]; Acinetobacter baumannii, COLR-Ab4, read-out: MIC) of the same compound?
Answer: 256 mg/L (≈ 1560 µM)

Question: And the MIC ([4]; Acinetobacter baumannii, COLR-Ab5, read-out: MIC)?
Answer: 128 mg/L (≈ 780 µM)

Question: And the MIC ([4]; Acinetobacter baumannii, all isolates except COLR-Ab5, read-out: MIC)?
Answer: 256 mg/L (≈ 1560 µM)

Question: And the MIC ([4]; COLR-Ab5)?
Answer: 128 mg/L (≈ 780 µM)

Question: What about the “Cell morphology by SEM” value [5] of the same compound?
Answer: certain morphological changes in bacterial cells

Question: Which results are given for `COc1ccc(C=CC(=O)O)cc1` [p-MCA, p-methoxycinnamic acid]?
Answer: Reduction of biofilm formation ([1]; COLR-Ab1, 3, 4, 5): 40.3–77.2%; Cytotoxicity (doses with cytotoxic effects) [2]: cytotoxicity in these cells at concentrations of 200, 100, and 50 μg/mL; also recorded: cytotoxic effects in HUVEC cells at doses of 200, 100, and 50 μg/mL; Cytotoxicity (doses with cytotoxic effects) [3]: only 200 μg/mL p-MCA induced cytotoxicity; also recorded: only at 200 μg/mL (p < 0.05); MIC ([4]; COLR-Ab1): 512 mg/L (≈ 2870 µM); MIC ([4]; COLR-Ab2): 512 mg/L (≈ 2870 µM); MIC ([4]; COLR-Ab3): 256 mg/L and 128 mg/L; MIC ([4]; COLR-Ab4): 256 mg/L (≈ 1440 µM); MIC ([4]; COLR-Ab5): 128 mg/L (≈ 718 µM); Cell morphology by SEM [5]: certain morphological changes in bacterial cells
